From the NIST ThermoML archive (doi:10.1016/j.jct.2016.03.034)

Experiment: xn = mol fraction of the nth substance listed
Settings: 100 kPa, Liquid; for mass density: Vibrating tube method; for viscosity: Capillary tube (Ostwald / Ubbelohde) method

O=C1CCCO1 [γ-butyrolactone] + CCCCCCCCn1cc[n+](C)c1.O=S(=O)([N-]S(=O)(=O)C(F)(F)F)C(F)(F)F
Settings | mass density, 308.15 K [kg/m3] | mass density, 313.15 K [kg/m3] | mass density, 318.15 K [kg/m3] | mass density, 323.15 K [kg/m3] | viscosity, 313.15 K [mPa·s] | viscosity, 318.15 K [mPa·s] | viscosity, 323.15 K [mPa·s]
x2 = 0 | – | 1109.87 | 1104.96 | 1100.05 | 1.37 | 1.28 | 1.2
x2 = 0.0486 | 1153.69 | 1148.89 | 1144.1 | 1139.34 | 1.96 | 1.82 | 1.69
x2 = 0.1001 | 1183.64 | 1178.93 | 1174.21 | 1169.52 | 2.72 | 2.49 | 2.29
x2 = 0.1497 | 1205.57 | 1200.87 | 1196.2 | 1191.56 | 3.61 | 3.23 | 2.95
x2 = 0.2006 | 1223.18 | 1218.54 | 1213.93 | 1209.34 | 4.62 | 4.17 | 3.78
x2 = 0.3037 | 1249.22 | 1244.66 | 1240.09 | 1235.56 | 7.27 | 6.47 | 5.8
x2 = 0.394 | 1265.2 | 1260.67 | 1256.15 | 1251.63 | – | – | –
x2 = 0.4952 | 1278.6 | 1274.11 | 1269.61 | 1265.15 | 13.95 | 12 | 10.5
x2 = 0.586 | 1287.67 | 1283.2 | 1278.74 | 1274.3 | – | – | –
x2 = 0.7007 | 1296.66 | 1292.22 | 1287.82 | 1283.4 | 23.79 | 19.85 | 16.69
x2 = 0.8081 | 1303.22 | 1298.8 | 1294.4 | 1290.01 | – | – | –
x2 = 0.9003 | 1307.76 | 1303.36 | 1298.97 | 1294.6 | 35.68 | 29.79 | 25.43
